{"source": "patent US20130065825A1", "about": "“Compositions and Methods for Delaying Senescence or Cell Death in Neurons” (NEUROTEZ, INC., priority 2011, published 2013)", "key": {"Aβ(1-40)": {"system": "Aβ(1-40)", "test": "Aβ(1-40) in culture media of SY5Y-APP751 cells by ELISA", "assay_type": "cell-based, human", "conditions": "18 h; for effect of co-treatment on Leptin's reduction of Aβ(1-40): Leptin 500 ng/mL + nicotinamide 5 mM or compound C 20 μM, Aβ(1-40) returned to vehicle levels", "description": "To generate SY5Y stably over-expressing amyloid precursor protein (APP), cells were transfected with a mammalian expression vector encoding the 751 amino acid isoform of human APP (APP751-Accession #NM_201413) (Origene Technologies; Rockville, Md.) using the FuGENE HD transfection reagent, according to manufacturer's specific instructions (Promega; Madison, Wis.). Briefly, cells were transiently transfected with APP751 or vehicle for 48 h and then switched into selection medium containing a concentration range of the antibiotic G418 (100-600 μg/mL) to determine the optimal dose for stable selection. Selection media was changed every 3 days to remove non-viable cells. After 3 weeks, 200 μg/mL G418 yielded distinct colonies while all vehicle-transfected cells were non-viable. Cells were maintained in 10% FBS media containing 200 μg/mL G418 for expansion.\n(§1) Neuronal cells were treated with Leptin (500 ng/ml) in the presence or absence of nicotinamide (5 mM) or compound C (20 μM) for 6 or 18 h, depending on readout, and then harvested by scraping. Preparation of lysates and immunoblotting were performed as described.\n(§2) Aβ(1-40) levels in cell culture media were determined using the Human β-Amyloid 1-40 ELISA kit (Invitrogen; Carlsbad, Calif.), and phospho- and total tau levels in cell culture lysates were determined using the Human Tau pSer^396, pThr^231 and Total Tau ELISA kits (Invitrogen) according to manufacturer's specific instructions.\nThe Human β-Amyloid 1-40 ELISA kit was used for the quantitative determination of human Aβ40 in samples (e.g., tissue culture medium, tissue homogenate, cerebrospinal fluid (CSF), and the like). The assay recognizes both natural and synthetic forms of human Aβ40. The anti-human Aβ40 antibody is capable of selectively detecting Aβ40 and not Aβ42/Aβ43. The Human β-Amyloid 1-40 ELISA kit is a solid phase sandwich Enzyme Linked-Immuno-Sorbent Assay (ELISA). […] This COOH-terminal sequence is created upon cleavage of the analyzed precursor. Bound rabbit antibody then is detected by the use of a horseradish peroxidase (HRP)-labeled anti-rabbit antibody. […]"}, "[1]": {"system": "AMP-Activated Protein Kinase (AMPK)", "test": "AMPK activity assay (CycLex AMPK Kinase Assay Kit) in lysates of RA-SY5Y cells", "assay_type": "cell-based, human", "description": "(§3) For neuronal differentiation, 1×10^6 SY5Y or IMR-32 cells were grown in neruonal induction medium (NIM), which is consisted of MEM containing 2% FBS supplemented with 10 μM retinoic acid (RA). Cells were incubated in NIM for 6 days, and switched to serum-free NIM prior to treatment and harvesting on day 7.\nas §1\nAMP-Activated Protein Kinase (AMPK) activity in cell lysates was determined using the CycLex AMPK Kinase Assay Kit (MBL International; Woburn, Mass.), as described previously. Briefly, the term “relative AMPK activity” or “AMPK activity,” is defined as Compound C-sensitive protein kinase activity in cell lysates. Titration of various Compound C doses identified 10 μM as the dose in which there was no further reduction in kinase activity upon increasing concentration (data not shown). Neuronal cell lysates were incubated in the presence or absence of 10 μM Compound C, and protein kinase activity determined by measuring phosphorylation of the Insulin Receptor Substrate-1 (IRS-1) through immunoassay and conversion of a chromogenic substrate at an absorbance of 450 nm (A450). Normalized AMPK activity in the lysates was defined as: […]"}, "phosphorylated tau": {"system": "phosphorylated tau", "test": "Tau phosphorylation in RA-SY5Y cells by immunoblot (pTau181) and ELISA (pTau231, pTau396)", "assay_type": "cell-based, human", "conditions": "6 h; for effect of co-treatment on Leptin's reduction of phospho-tau: Leptin 500 ng/mL + nicotinamide 5 mM or compound C 20 μM, phospho-tau returned to control levels; for Tau396 phosphorylation compared to control: nicotinamide 5 mM or compound C 20 μM, independent of Leptin treatment, ELISA", "description": "as §3, §1, §2\nThe Invitrogen Human Tau (Total) kit is a solid phase sandwich Enzyme Linked-Immuno-Sorbent Assay (ELISA). Samples, including standards of known human Tau content, control specimens, and unknowns, are pipetted into the wells of microtiter strips, which are coated with a monoclonal antibody specific for human Tau. During the first incubation, the human Tau antigen binds to the immobilized (capture) antibody on one site. After washing, a rabbit polyclonal antibody specific for human Tau is added. During the second incubation, this antibody binds to the immobilized human Tau captured during the first incubation. After removal of excess second antibody, a horseradish peroxidase (HRP)-labeled anti-rabbit antibody is added. This binds to the rabbit polyclonal antibody to complete the four-member sandwich. After a third incubation and washing to remove all the excess anti-rabbit HRP, a substrate solution is added, which is acted upon by the bound enzyme to produce color. The intensity of this colored product is directly proportional to the concentration of human Tau present in the original specimen."}, "Total Sirtuins [2]": {"system": "Total Sirtuins", "test": "SIRT activity assay (Fluor-de-Lys HDAC Fluorimetric Cellular Activity Assay Kit) in lysates of RA-SY5Y cells", "assay_type": "cell-based, human", "conditions": "6 h", "description": "as §3, §1\nTotal Sirtuins activity in cell lysates was determined using the Fluro-de-Lys® HDAC Fluorimetric Cellular Activity Assay Kit (Enzo Life Sciences; Plymouth Meeting, Pa.), according to manufacturer's specified guidelines. “SIRT activity” in this assay is defined as nicotinamide-sensitive deacetylase (class III HDAC) activity in cell lysates. […] Neuronal cell lysates were incubated in the presence or absence of 5 mM nicotinamide, and SIRT activity determined by adding the Flour-de-Lys® Substrate for deacetylation followed by exposure to the Fluor-de-Lys® Developer to generate a fluorescent signal for detection using a fluorimeter (Ex. 350-380 nm; Em. 440-460 nm). Normalized SIRT activity in the lysates was measured in units of fluorescence intensity (Fi) and defined as: […]"}, "Total Sirtuins [3]": {"system": "Total Sirtuins", "conditions": "identified by the manufacturer of the kit; cited from earlier work"}}, "data": [{"compound": "c1cc(-c2cnn3cc(-c4ccc(OCCN5CCCCC5)cc4)cnc23)ccn1", "note": "[compound C, 6-[4-(2-Piperidin-1-yl-ethoxy)-phenyl]-3-pyridin-4-yl-pyrrazolo[1,5,-α]pyrimidine]", "values": [{"measurement": "effect of co-treatment on Leptin's reduction of Aβ(1-40)", "setting": "Aβ(1-40)", "value": "reversed these effects"}, {"measurement": "AMPK activity on co-treatment with Leptin", "setting": "[1]; RA-SY5Y cells, Leptin 500 ng/mL + compound C 20 μM, 6 h, to levels similar to non-treated control", "value": "significantly (p<0.05) reduced AMPK activity"}, {"measurement": "dose with no further reduction in kinase activity upon increasing concentration", "setting": "[1]; titration in cell lysates, data not shown", "value": 10, "unit": "µM"}, {"measurement": "effect of co-treatment on Leptin's reduction of phospho-tau", "setting": "phosphorylated tau", "value": "negated these effects"}, {"measurement": "Tau396 phosphorylation compared to control", "setting": "phosphorylated tau", "value": "significantly (p<0.05) increased"}]}, {"compound": "Leptin: recombinant human Leptin purchased from Sigma-Aldrich; pleiotropic hormone primarily secreted by adipocytes", "values": [{"measurement": "Aβ(1-40) in culture media", "setting": "Aβ(1-40); Leptin 500 ng/mL, no inhibitors, normalized to total protein, n=3", "value": "significant (p<0.05) reduction"}, {"measurement": "increase in AMPK kinase activity vs cells treated without Leptin", "setting": "[1]; RA-SY5Y cells, Leptin 500 ng/mL, 6 h, normalized to total protein, n=3, p<0.05", "value": "approximately 2 fold"}, {"measurement": "increase in total SIRT deacetylase activity vs cells treated without Leptin", "setting": "Total Sirtuins [2]; Leptin 500 ng/mL, normalized to total protein, n=3, p<0.05", "value": "approximately 2.5 fold"}, {"measurement": "all examined phospho-tau species (pTau181, pTau231, pTau396)", "setting": "phosphorylated tau; Leptin 500 ng/mL, no SIRT or AMPK inhibition, normalized to total tau, n=3", "value": "significant (p<0.05) reduction"}]}, {"compound": "NC(=O)c1cccnc1", "note": "[nicotinamide]", "values": [{"measurement": "effect of co-treatment on Leptin's reduction of Aβ(1-40)", "setting": "Aβ(1-40)", "value": "reversed these effects"}, {"measurement": "SIRT activity on co-treatment with Leptin", "setting": "Total Sirtuins [2]; Leptin 500 ng/mL + nicotinamide 5 mM, to levels similar to non-treated control", "value": "significantly (p<0.05) reduced SIRT activity"}, {"measurement": "effect of co-treatment on Leptin's reduction of phospho-tau", "setting": "phosphorylated tau", "value": "negated these effects"}, {"measurement": "Tau396 phosphorylation compared to control", "setting": "phosphorylated tau", "value": "significantly (p<0.05) increased"}, {"measurement": "dose with no further reduction in deacetylase activity upon increasing concentration", "setting": "Total Sirtuins [3]", "value": 5, "unit": "mM"}]}]}
